Molecules are shown by their SMILES.

The subject of this experiment is AfCutB. The conditions noted are these: 30 °C, 5 min; standard assay 0.05 M Tris-HCl pH 8.5 (results text: optimal conditions, optimum pH 9.0).

For the compound `CCCC(=O)Oc1ccc([N+](=O)[O-])cc1` [p-nitrophenyl butyrate], the Km is 6.29 mM.

The Km is the concentration of substrate that gives half-maximal velocity.

Source of the values: paper PMC12114444, “Biochemical Characterization and Polyester-Binding/Degrading Capability of Two Cutinases from Aspergillus fumigatus” (Microorganisms, 2025).
